Laboratory results from patent publication US10752596B2, “Nitrogen-containing heteroaryl compound and pharmaceutical use thereof” (JAPAN TOBACCO INC., priority 2017, dated 2020).

Target: human GLUT9 (Homo sapiens (Human), UniProt Q9NRM0)
Assay: Evaluation of human GLUT9 inhibitory activity ([14C] uric acid uptake in human GLUT9 expressing HEK293T cells transduced with Uricase/Hyper)
Format: cell-based
Settings: final 300 μM uric acid, 6 min, human GLUT9 stably expressing HEK293T cells, read-out: humans GLUT9 inhibitory activity (IC50 value (μM))
Experimental: A method for measuring GLUT9 inhibitory activity using human GLUT9 expressing cells transduced with Uricase/Hyper is shown hereinafter. GLUT9 inhibitory activity ([…]) of the test compound was calculated based on the intracellular uptake amount of labeled uric acid ([^14C] uric acid) transported by GLUT9.
1. Preparation of Human GLUT9 Expression Plasmid
Human GLUT9S coding region (NM_001001290.1) was amplified by PCR method using PrimeSTAR MAX DNA Polymerase (Takara Bio). The obtained PCR product was subjected to agarose gel electrophoresis, and the desired size of PCR product was purified by QIAquick Gel Extraction Kit (QIAGEN). Next, pEBMulti-Bsd vector (Wako Pure Chemical Industries, Ltd.) was subjected to digestion using restriction enzymes SalI and EcoR V, and linked to the PCR product containing GLUT9S by In-Fusion reaction using In-Fusion HD Cloning Kit (Takara Bio). XL10-Gold Competent Cells (Agilent Technologies) were transformed in In-Fusion reaction solution, and the obtained transfectants were cultured with shaking overnight in LB medium to which Blasticidin S HCl (Thermo Fisher Scientific) was added. Human GLUT9 expression plasmid DNA was prepared from the collected transfectants using EndoFree Plasmid Kit (Takara Bio).
2. Establish of Human GLUT9 Stably Expressing Cell
HEK293T cells (American Type Culture Collection, DS Pharma Biomedical) were seeded in a 6 well plate at 1×10^6 cells/well. Next day, human GLUT9 expression plasmid was transfected by using Lipofectamine 3000 Reagent (Thermo Fisher Scientific) as follows. Lipofectamine 3000 Reagent (5 μL) was diluted with Opti-MEM (125 μL, Thermo Fisher Scientific). Separately, plasmid DNA (2.5 μg) was diluted with Opti-MEM (125 μL), and P3000 Reagent (5 μL) was added thereto. The obtained solution was mixed with the previously obtained diluted solution, and the mixture was left stand at room temperature for 5 min, and added to the cells. Next day, the transfected cells were diluted and reseeded in a 6 well plate at 4×10^5 cells/well, and drug selection was performed in the presence of 30 μg/mL of Blasticidin S HCl, and thereby, Blasticidin-resistant human GLUT9 stably expressing cell line was established. Mock cells were prepared by introducing pEBMulti-Bsd vector into HEK293T cells in a similar manner.
3. Preparation of Uricase/Hyper Expression Plasmid
Uricase/Hyper expression plasmid was prepared by linking the coding regions of Aspergillus Flavus-derived uricase gene and pHyPer-Cyto vector (Evrogen) HyPer gene to the pEBMulti-Hyg vector (Wako Pure Chemical Industries, Ltd.) and then introducing it. The preparation method was performed by reference to Gout and Nucleic Acid Metabolism 2013, 37(2), 93-101, and seven repeated linker sequence of glycine-glycine-glycine-serine was prepared herein.
4. Preparation of Human GLUT9-Uricase/Hyper Coexpressing Cell
Human GLUT9 stably expressing cells were seeded at 3.6×10^7 cells per 225 cm^2 flask. Next day, Uricase/Hyper expression plasmid was transfected by using Lipofectamine 3000 Reagent as follows. Lipofectamine 3000 Reagent (40 μL) was diluted with Opti-MEM (750 μL). Separately, plasmid DNA (20 μg) was diluted with Opti-MEM (750 μL), and P3000 Reagent (40 μL) was added thereto. The obtained solution was mixed with the previously obtained diluted solution, and the mixture was left stand at room temperature for 5 min, and added to the cells. Next day, transfected cells were collected to prepare human GLUT9-Uricase/Hyper coexpressing cells.
5. Evaluation of GLUT9 Inhibitory Activity
Uricase/Hyper transiently-transfected human GLUT9 stably expressing cells or mock cells (blank) were seeded in a 96 well plate (Corning) at 1.6×10^5 cells/well, and cultured overnight at 37° C., 5% CO2. D-MEM/high glucose (Wako Pure Chemical Industries, Ltd.) containing 10% Fetal Bovine Serum (Lifetechnology) and 100 units/ml penicillin/100 μg/ml streptomycin (GIBCO) was used as a medium.

human GLUT9, sequence (Q9NRM0 other isoform, or with tags, fused parts or gaps): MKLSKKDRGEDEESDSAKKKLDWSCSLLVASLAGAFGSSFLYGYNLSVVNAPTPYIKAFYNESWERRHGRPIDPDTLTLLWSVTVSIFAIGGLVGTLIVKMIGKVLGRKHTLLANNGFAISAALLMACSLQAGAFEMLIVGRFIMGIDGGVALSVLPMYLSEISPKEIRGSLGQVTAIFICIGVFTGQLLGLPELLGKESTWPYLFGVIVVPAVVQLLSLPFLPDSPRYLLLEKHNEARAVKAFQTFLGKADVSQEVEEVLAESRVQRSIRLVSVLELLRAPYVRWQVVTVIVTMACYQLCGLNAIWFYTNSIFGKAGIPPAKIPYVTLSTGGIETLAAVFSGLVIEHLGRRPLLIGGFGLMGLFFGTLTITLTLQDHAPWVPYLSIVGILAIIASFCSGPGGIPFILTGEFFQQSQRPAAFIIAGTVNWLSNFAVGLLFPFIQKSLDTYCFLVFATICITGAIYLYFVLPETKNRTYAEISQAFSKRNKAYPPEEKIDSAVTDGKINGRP

Row | SMILES | IC50
1 | COCCCCc1cnc(-c2cc(F)c(OC)c(F)c2)c(-c2ccc(CCC(=O)O)cc2)n1 [Example 148] | 0.0807 µM
2 | COc1c(F)cc(-c2ncc(CC(C)C)nc2-c2ccc(CCC(=O)O)cc2)cc1F [Example 150] | 0.102 µM
3 | CCCCc1cnc(-c2cc(F)c(OC)c(F)c2)c(-c2ccc(CCC(=O)O)cc2)n1 [Example 153] | 0.102 µM

Other lines, results leading:

Row | IC50 | SMILES
4 | 0.0574 µM | COc1c(F)cc(-c2ncc(CC(C)C)nc2-c2ccc(C(=O)O)c(C)c2)cc1F [Example 149]
5 | 0.106 µM | COc1c(F)cc(-c2ncc(CC(C)C)nc2-c2ccc(C(=O)O)c(Cl)c2)cc1F [Example 151]
6 | 0.059 µM | CCCCc1cnc(-c2cc(F)c(OC)c(F)c2)c(-c2ccc(C(=O)O)c(C)c2)n1 [Example 152]
